One test has as its target FPRL-1 (Homo sapiens (Human), UniProt P25090). The experiment in a line: FPRL-1 Ga16-CHO EC50 (efficacy). Type of test: cell-based. As to conditions: value in brackets; for FPRL-1 Ga16-CHO (efficacy): Table 1; for FPRL-1 Gal16-CHO (efficacy): Table 3.
A further test addresses human FPR2 receptor (Homo sapiens (Human), UniProt P25090). The experiment in a line: FLIPR Ca+2 response in HEK-Gα16 cells stably expressing the human FPR2 receptor. On the set-up: FPR2 (% eff): unit not given here. The following applies: Table 4; for FPR2 (% eff): value in brackets, given mostly as fraction. Type of test: cell-based. The method in brief:
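HEK-Gα16 cells stably expressing human FPR2, loaded with 2 μM Fluo-4 in HBSS/20 mM HEPES for 40 min at 37° C., then washed. Ligands added in HBSS/Hepes and Ca+2 responses recorded on FLIPR in relative fluorescence units.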

Sequence of human FPR2 receptor (P25090 whole entry): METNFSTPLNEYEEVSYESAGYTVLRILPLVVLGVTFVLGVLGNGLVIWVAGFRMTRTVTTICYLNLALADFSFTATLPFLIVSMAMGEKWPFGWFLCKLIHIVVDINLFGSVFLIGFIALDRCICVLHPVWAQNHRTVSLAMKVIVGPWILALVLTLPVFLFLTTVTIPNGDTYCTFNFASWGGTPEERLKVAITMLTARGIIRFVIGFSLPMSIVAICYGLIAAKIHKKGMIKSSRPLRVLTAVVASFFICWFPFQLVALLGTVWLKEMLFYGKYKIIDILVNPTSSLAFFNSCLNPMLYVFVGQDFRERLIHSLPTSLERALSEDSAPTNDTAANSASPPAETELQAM
Sequence of FPRL-1 (P25090 whole entry): as above

As for `CC(C)[C@H](NC(=O)Nc1ccc(Br)cc1F)C(=O)O` [(2S)-2-({[(4-bromo-2-fluorophenyl)amino]carbonyl}amino)-3-methylbutanoic acid], the “FPRL-1 Ga16-CHO (efficacy)” value at FPRL-1 is recorded as 0.91.
For `O=C(Nc1ccc(Br)cc1)N[C@H](Cc1ccccc1)C(=O)O` [(2R)-2-({[(4- bromophenyl)amino]carbonyl}amino)- 3-phenylpro] [(2R)-2-({[(4-bromophenyl)amino]carbonyl}amino)-3-phenylpropanoic acid], the “FPRL-1 Ga16-CHO (efficacy)” value on FPRL-1 was found to be 0.99.
Regarding `CC[C@H](C)[C@H](NC(=O)Nc1ccc(Br)cc1)C(=O)O` [(2S,3S)-2-({[(4-bromophenyl)amino]carbonyl}amino)-3-methylpentanoic acid], the “FPRL-1 Ga16-CHO (efficacy)” value at FPRL-1 worked out at 0.89.
For the molecule `CCC1(CC)NC(=O)N(CC(=O)Nc2ccc(Br)cc2)C1=O` [N-(4-bromophenyl)-2-(4,4-diethyl-2,5-dioxoimidazolidin-1-yl)acetamide], the “FPRL-1 Gal16-CHO (efficacy)” value at FPRL-1 was determined as 0.98.
For `CC1(C)NC(=O)N(CC(=O)Nc2ccc(Br)cc2)C1=O` [N-(4-bromophenyl)-2-(4,4-dimethyl-2,5-dioxoimidazolidin-1-yl)acetamide], the “FPRL-1 Gal16-CHO (efficacy)” value on FPRL-1 was found to be 0.94.
Consider `CCC1(CCc2ccccc2C(=O)OC)NC(=O)N(NC(=O)Nc2ccc(Br)cc2)C1=O` (stereo not shown) [Compound 141, methyl 2-[2-(1-{[(4-bromophenyl)carbamoyl]amino}-4-ethyl-2,5-dioxoimidazolidin-4-yl)ethyl]benzoate], for which, at human FPR2 receptor, the “FPR2 (% eff)” value is listed as 0.92.
Take `CCOP(=O)(CNC(=O)[C@H](Cc1ccccc1)NC(=O)Nc1ccc(Br)cc1)OCC` [Compound 118, diethyl ({[(2S)-2-{[(4-bromophenyl)carbamoyl]amino}-3-phenylpropanoyl]amino}methyl)phosphonate]: the “FPR2 (% eff)” value on human FPR2 receptor is listed as 0.93.
On the same count and under the same terms, for `CCC1(CC)NC(=O)N(NC(=O)Nc2ccc(Br)cc2F)C1=O` [Compound 50, 1-(4-bromo-2-fluorophenyl)-3-(4,4-diethyl-2,5-dioxoimidazolidin-1-yl)urea] the value was 1.0; for `CCOP(=O)(CCNC(=O)CC1(C(C)C)NC(=O)N(NC(=O)Nc2ccc(Br)cc2)C1=O)OCC` (stereo not shown) [Compound 152, diethyl [2-({[1-{[(4-bromophenyl)carbamoyl]amino}-2,5-dioxo-4-(propan-2-yl)imidazolidin-4-yl]acetyl}amino)ethyl] phosphonate], 1.0; for `CCOP(=O)(CNC(=O)[C@@H](NC(=O)Nc1ccc(Br)cc1)[C@@H](C)CC)OCC` [Compound 114, diethyl ({[(2S,3S)-2-{[(4-bromophenyl)carbamoyl]amino}-3-methylpentanoyl]amino}methyl)phosphonate], 1.0.
With `CSc1ccc(NC(=O)Nc2ccc3c(c2)C(=O)N(CCc2c[nH]cn2)C(c2ccc(Cl)nc2)C3)cc1` (stereo not shown) [Compound 28, 1-{3-(6-chloropyridin-3-yl)-2-[2-(1H-imidazol-4-yl)ethyl]-1-oxo-1,2,3,4-tetrahydroisoquinolin-7-yl}-3-[4-(methylsulfanyl)phenyl]urea], the “FPR2 (% eff)” value on human FPR2 receptor was 0.89.
On the same count and under the same terms, the same measure for `O=C(O)[C@@H]1C2CCC([C@@H]1C(=O)Nc1ccc(Br)cc1)C21CC1` (relative stereo) [Compound 14, rel-(2R,3S)-3-[(4-bromophenyl)carbamoyl]spiro [bicyclo[2.2.1]heptane-7,1′-cyclopropane]-2-carboxylic acid]: 0.90; for `CC1(CCc2ccc(F)cc2)NC(=O)N(NC(=O)Nc2ccc(Br)cc2)C1=O` (stereo not shown) [Compound 82, 1-(4-bromophenyl)-3-{4-[2-(4-fluorophenyl)ethyl]-4-methyl-2,5-dioxoimidazolidin-1-yl}urea]: 1.0; for `CCOC(=O)C1CCC2(CC1)NC(=O)N(NC(=O)Nc1ccc(Br)cc1)C2=O` (stereo not shown) [Compound 153, ethyl 3-{[(4-bromophenyl)carbamoyl]amino}-2,4-dioxo-1,3-diazaspiro[4.5]decane-8-carboxylate]: 0.99.
Still for that read-out and setting: the same measure for `CCC1(C(C)C)NC(=O)N(NC(=O)Nc2ccc(Br)cc2F)C1=O` (stereo not shown) [Compound 61, 1-(4-bromo-2-fluorophenyl)-3-[4-ethyl-2,5-dioxo-4-(propan-2-yl)imidazolidin-1-yl]urea]: 0.97; for `CCC[C@H](NC(=O)[C@H](CC(C)C)NC(=O)Nc1ccc(Br)cc1)C(=O)OC(C)(C)C` [Compound 100, tert-butyl (2S)-2-{[(2S)-2-{[(4-bromophenyl)carbamoyl]amino}-4-methylpentanoyl]amino} pentanoate]: 1.0; for `CSc1ccc(NC(=O)Nc2ccc3c(c2)C(=O)N(CCCN)C(C)C3)cc1` (stereo not shown) [Compound 42, 1-[2-(3-aminopropyl)-3-methyl-1-oxo-1,2,3,4-tetrahydroisoquinolin-7-yl]-3-[4-(methylsulfanyl)phenyl]urea]: 1.00.
As a reminder, the EC50 is the concentration that produces a half-maximal response. Regarding `NC(=O)C1C(C(=O)Nc2ccc(Br)cc2)C2CCC1C21CC1` (single isomer, unassigned; (-)) [Compound 45, (−) N-(4-bromophenyl)spiro[bicyclo [2.2.1]heptane-7,1′-cyclopropane]-2,3-dicarboxamide], on human FPR2 receptor, the EC50 is below 1 nM and the “FPR2 (% eff)” value turned out to be 0.91.
`CC[C@H](C)[C@H](NC(=O)Nc1ccc(Br)cc1F)C(=O)NCC(=O)O` [Compound 59, {[(2S,3S)-2-{[(4-bromo-2-fluorophenyl)carbamoyl]amino}-3-methylpentanoyl]amino} acetic acid]: the “FPR2 (% eff)” value on human FPR2 receptor is reported as 0.95.
As for `CCOP(=O)(O)CNC(=O)[C@H](CC(C)C)NC(=O)Nc1ccc(Br)cc1` [Compound 105, ethyl hydrogen ({[(2S)-2-{[(4-bromophenyl)carbamoyl]amino}-4-methylpentanoyl]amino}methyl)phosphonate], the “FPR2 (% eff)” value on human FPR2 receptor came out at 0.88.
On the same count and under the same terms, for `CS(=O)(=O)c1ccc(NC(=O)Nc2ccc3c(c2)C(=O)N(CCc2c[nH]cn2)C(c2ccc(C#N)cc2)C3)cc1` (stereo not shown) [Compound 19, 1-{3-(4-cyanophenyl)-2-[2-(1H-imidazol-4-yl)ethyl]-1-oxo-1,2,3,4-tetrahydroisoquinolin-7-yl}-3-[4-(methylsulfonyl)phenyl]urea] the value was 1.00.
Consider `CC(=O)CNC(=O)[C@H](CC(C)C)NC(=O)Nc1ccc(Br)cc1F` [Compound 85, (2S)-2-{[(4-bromo-2-fluorophenyl)carbamoyl]amino}-4-methyl-N-(2-oxopropyl)pentanamide], for which, at human FPR2 receptor, the “FPR2 (% eff)” value is on record as 0.99.
Consider `CC(C)C[C@H](NC(=O)Nc1ccc(Br)cc1)C(=O)NCc1nnn[nH]1` [Compound 104, (2S)-2-{[(4-bromophenyl)carbamoyl]amino}-4-methyl-N-(1H-tetrazol-5-ylmethyl)pentanamide], for which, on human FPR2 receptor, the “FPR2 (% eff)” value turned out to be 0.81.
Turning to `CCC(CC)(NC(=O)Nc1ccc(Br)cc1)C(=O)NCC(=O)O` [Compound 113], at human FPR2 receptor, the EC50 was 18.7 nM and the FPR2 (% eff) came to 100.
Take `CS(=O)(=O)c1ccc(NC(=O)Nc2ccc3c(c2)C(=O)N(CCc2c[nH]cn2)C(c2ccc(F)cn2)C3)cc1` (stereo not shown) [Compound 25, 1-{3-(5-fluoropyridin-2-yl)-2-[2-(1H-imidazol-4-yl)ethyl]-1-oxo-1,2,3,4-tetrahydroisoquinolin-7-yl}-3-[4-(methylsulfonyl)phenyl]urea]: on human FPR2 receptor, the “FPR2 (% eff)” value was determined as 1.0.
With `CCC[C@H](NC(=O)Nc1ccc(Br)cc1)C(=O)NCC(=O)OC(C)C` [Compound 73, propan-2-yl {[(2S)-2-{[(4-bromophenyl)carbamoyl]amino}pentanoyl]amino}acetate], at human FPR2 receptor, the “FPR2 (% eff)” value came out at 1.0.
`CCC1(CCc2ccccc2)NC(=O)N(NC(=O)Nc2ccc(Br)cc2F)C1=O` (stereo not shown) [Compound 69, 1-(4-bromo-2-fluorophenyl)-3-[4-ethyl-2,5-dioxo-4-(2-phenylethyl)imidazolidin-1-yl]urea]: on human FPR2 receptor, the “FPR2 (% eff)” value turned out to be 0.91.
Turning to `CC(C)C[C@H](NC(=O)Nc1ccc(Br)cc1)C(=O)NC(CO)CO` [Compound 94, (2S)-2-{[(4-bromophenyl)carbamoyl]amino}-N-(1,3-dihydroxypropan-2-yl)-4-methylpentanamide], the “FPR2 (% eff)” value on human FPR2 receptor is 0.96.
As for `CCC[C@H](NC(=O)[C@H](CC(C)C)NC(=O)Nc1ccc(Br)cc1)C(N)=O` [Compound 102, (2S)-N-[(2S)-1-amino-1-oxopentan-2-yl]-2-{[(4-bromophenyl)carbamoyl]amino}-4-methylpentanamide], the “FPR2 (% eff)” value at human FPR2 receptor stood at 0.99.
With `CC(C)C[C@H](NC(=O)Nc1ccc(Br)cc1)C(=O)NCCO` [Compound 75, (2S)-2-{[(4-bromophenyl)carbamoyl]amino}-N-(2-hydroxyethyl)-4-methylpentanamide], on human FPR2 receptor, the “FPR2 (% eff)” value was 0.76.
As to `O=C(O)C1C(C(=O)Nc2ccc(Br)cc2)C2C=CC1C21CC1` (stereo not shown) [Compound 12, 3-[(4-bromophenyl)carbamoyl]spiro [bicyclo[2.2.1]heptane-7,1′-cyclopropane]-5-ene-2-carboxylic acid], at human FPR2 receptor, the “FPR2 (% eff)” value came out at 0.97.
For the molecule `CC1(CCc2ccc(O)cc2)NC(=O)N(NC(=O)Nc2ccc(Br)cc2F)C1=O` (stereo not shown) [Compound 89, 1-(4-bromo-2-fluorophenyl)-3-{4-[2-(4-hydroxyphenyl)ethyl]-4-methyl-2,5-dioxoimidazolidin-1-yl}urea], at human FPR2 receptor, the “FPR2 (% eff)” value is given as 0.85.
On the same count and under the same terms, the same measure for `CC1(CCc2ccccc2O)NC(=O)N(NC(=O)Nc2ccc(Br)cc2)C1=O` (stereo not shown) [Compound 109, 1-(4-bromophenyl)-3-{4-[2-(2-hydroxyphenyl)ethyl]-4-methyl-2,5-dioxoimidazolidin-1-yl}urea]: 0.93.
On the same count and under the same terms, for `O=C(Nc1ccc(Br)cc1)NC(Cc1ccccc1)C(=O)NC1CCCCNC1=O` (stereo not shown) [Compound 10, 2-{[(4-bromophenyl)carbamoyl]amino}-N-(2-oxoazepan-3-yl)-3-phenylpropanamide] the value was 0.89; for `CCNC(=O)C1C(C(=O)Nc2ccc(Br)cc2)C2CCC1C21CC1` (stereo not shown) [Compound 47, N-(4-bromophenyl)-N′-ethylspiro[bicyclo[2.2.1]heptane-7,1′-cyclopropane]-2,3-dicarboxamide], 1.0.

These data come from patent publication US10434112B2, “Use of agonists of formyl peptide receptor 2 for treating dermatological diseases” (Allergan, Inc., priority 2013, dated 2019).
